The text below walks through data of US9855265B2, “Methods for treating cancer with TrkA receptor tyrosine kinase antagonists” (VM Oncology LLC, priority 2014, dated 2018).

In series [1] the target is other more than 400 kinases. Kind of series: radiometric kinase assay, kinase panel. Type of series: biochemical, human. To be noted: duplicate. On the procedure: (§1) Compound inhibition in a radiometric based mixed micelle assay: In a final reaction volume of 25 μL, TrkA (h) ([…]) is incubated with the kinase reaction buffer (20 mM HEPES (pH 7.5), 10 mM MgCl2, 1 mM EGTA, 0.02% Brij 35, 0.02 mg/ml BSA, 0.1 mM Na3VO4, 2 mM DTT, 1% DMSO), 0.2 mg/ml substrate PolyEY(4:1) and […], and [^33P-ATP](specific activity approx. 500 cpm/pmol, concentration as required). The reaction is initiated by the addition of the MgATP mix. After incubation for at least 40 minutes at room temperature, the reaction is stopped by the addition of 5 μL of a 3% phosphoric acid solution. 10 μL of the reaction is then spotted onto a P30 filtermat and washed three times for 5 minutes in 75 mM phosphoric acid and once in methanol prior to drying and scintillation counting. TrkA: Recombinant Human Cytoplasmic Domain (amino acids 441-796), Histidine-tagged, expressed in insect cells. Activated in vitro via auto-phosphorylation. Mw=42.8 kDa. Substrates for kinases: poly(EY) for TRKA; poly(EY)(4:1) with 2 mM MnCl2, average Mw=16 kDa Standard conditions (unless otherwise specified): 30 nM TRKA, 0.2 mg/ml poly(EY)+2 mM MnCl2, and 10 μM ([γ-^33P]) ATP. Using the similar assay condition with other kinases of recombinant human cytoplasmic domain, the activities of other kinases could be also measured.

Series [2] concerns the target MEK2 (Homo sapiens, UniProt P36507). Kind of series: radiometric kinase assay, other kinases: MEK2. Type of series: biochemical. To be noted: duplicate. On the procedure:
as §1

In series [3] the target is PKCiota (Homo sapiens, UniProt P41743). Kind of series: radiometric kinase assay, other kinases: PKCiota. In kind it is biochemical. As to conditions: duplicate. On the procedure:
as §1

Series [4] addresses T1, PDGFRb (Homo sapiens, UniProt P09619).
T1 construct: other kinases of recombinant human cytoplasmic domain
Kind of series: radiometric kinase assay, other kinases: PDGFRb. In kind it is biochemical. To be noted: duplicate. The protocol: as §1

For series [5], the target named is T2, EPHA1 (Homo sapiens, UniProt P21709).
T2 construct: other kinases of recombinant human cytoplasmic domain
In words: radiometric kinase assay, other kinases: EPHA1. Type of series: biochemical. As to conditions: duplicate. The protocol:
as §1

The target in series [6] is T3, c-MET (Homo sapiens, UniProt P08581).
T3 construct: other kinases of recombinant human cytoplasmic domain
Kind of series: radiometric kinase assay, other kinases: c-MET. In kind it is biochemical. As to conditions: duplicate. The protocol: as §1

The target of series [7] is TrkC (Homo sapiens, UniProt Q16288). Kind of series: live whole cell based functional assay, NT3 stimulated TrkC activation. Also on record: expressed in transfected cells. To be noted: triplicate.
Series [8] is described as follows: Pharmacokinetics and bioavailability in CD-1 mice. To be noted: in vivo. The protocol: Pharmacokinetic and bioavailabilities after oral and intraperitoneal (i.p.) treatment bioavailability in CD-1 mice. Pharmacokinetics and bioavailability of after oral and i.p. treatment in CD-1 mice (n=4 per dose group) are determined.
The target in series [9] is JNK3 (Homo sapiens, UniProt P53779). In words: radiometric kinase assay, other kinases: JNK3. Type of series: biochemical. To be noted: duplicate. On the procedure:
as §1

Series [10] deals with T4, VEGFR3/FLT4 (Homo sapiens, UniProt P35916).
T4 construct: other kinases of recombinant human cytoplasmic domain
Kind of series: radiometric kinase assay, other kinases: VEGFR3/FLT4. In kind it is biochemical. As to conditions: duplicate. On the procedure:
as §1

Series [11] deals with CDK1/cyclinB (Homo sapiens, UniProt P06493). In words: radiometric kinase assay, other kinases: CDK1/cyclinB. As to conditions: duplicate. Type of series: biochemical. The protocol: as §1
The test system of series [12] is carrageenan-induced pain in rats. Kind of series: Carrageenan Pain Model. In kind it is in vivo, Sprague-Dawley rats. As to conditions: carrageenan rat model, 150 mg/kg oral dose, compared to indomethacin. The protocol:
Carrageenan Pain Model The carrageenan model is a fast, reliable model used to assess the ability of analgesics to block inflammatory pain. The analgesic effects of test article combinations on pain generation are assayed using the carrageenan-induced pain model in rats. Adult male Sprague-Dawley rats are administered study drugs orally (vehicle, compounds of present disclosure) once daily for 2 days (day −2 and day −1) and 30 minutes prior to the carrageenan injection on day 0 (time=0). For the carrageenan injection, animals are lightly anesthetized and 0.1 ml of 2% carrageenan is injected into the plantar surface of the right hind paw. The positive control indomethacin (30 mg/kg, p.o.) is administered orally immediately before the carrageenan injection. Paw volumes (right and left) are measured using a Plethysmometer before drug administration on day −2 and serve as a baseline measurement. The paw volumes are measured again two hours post carrageenan injection. The degree of mechanical allodynia is measured by a blinded observer using Von Frey filaments applied to the plantar surface of the hind paws in an increasing numerical order. Each filament increases the force applied on the paw. The filaments are applied until animal paw withdrawal is achieved. […] Results are expressed as mean change from baseline across five timepoints post carrageenan injection.

Series [13] addresses T5, AXL (Homo sapiens, UniProt P30530).
T5 construct: other kinases of recombinant human cytoplasmic domain
Kind of series: radiometric kinase assay, other kinases: AXL. Type of series: biochemical. As to conditions: duplicate. The protocol:
as §1

Series [14] deals with P38b/MAPK11 (Homo sapiens, UniProt Q15759). In words: radiometric kinase assay, other kinases: P38b/MAPK11. Type of series: biochemical. To be noted: duplicate. The protocol: as §1
Series [15] has as its target T6, PDGFRa (Homo sapiens, UniProt P16234).
T6 construct: other kinases of recombinant human cytoplasmic domain
Kind of series: radiometric kinase assay, other kinases: PDGFRa. As to conditions: duplicate. Type of series: biochemical. The protocol:
as §1

Series [16] addresses c-Src (Homo sapiens, UniProt P12931). In words: radiometric kinase assay, other kinases: c-Src. In kind it is biochemical. To be noted: duplicate. The protocol:
as §1

Series [17] deals with PKA (Homo sapiens, UniProt P17612). Kind of series: radiometric kinase assay, other kinases: PKA. Type of series: biochemical. As to conditions: duplicate. The protocol:
as §1

Molecules are shown by their SMILES. Like-named read-outs stand apart in the source and are kept apart here.

Chain of TrkC (Q16288 32-839): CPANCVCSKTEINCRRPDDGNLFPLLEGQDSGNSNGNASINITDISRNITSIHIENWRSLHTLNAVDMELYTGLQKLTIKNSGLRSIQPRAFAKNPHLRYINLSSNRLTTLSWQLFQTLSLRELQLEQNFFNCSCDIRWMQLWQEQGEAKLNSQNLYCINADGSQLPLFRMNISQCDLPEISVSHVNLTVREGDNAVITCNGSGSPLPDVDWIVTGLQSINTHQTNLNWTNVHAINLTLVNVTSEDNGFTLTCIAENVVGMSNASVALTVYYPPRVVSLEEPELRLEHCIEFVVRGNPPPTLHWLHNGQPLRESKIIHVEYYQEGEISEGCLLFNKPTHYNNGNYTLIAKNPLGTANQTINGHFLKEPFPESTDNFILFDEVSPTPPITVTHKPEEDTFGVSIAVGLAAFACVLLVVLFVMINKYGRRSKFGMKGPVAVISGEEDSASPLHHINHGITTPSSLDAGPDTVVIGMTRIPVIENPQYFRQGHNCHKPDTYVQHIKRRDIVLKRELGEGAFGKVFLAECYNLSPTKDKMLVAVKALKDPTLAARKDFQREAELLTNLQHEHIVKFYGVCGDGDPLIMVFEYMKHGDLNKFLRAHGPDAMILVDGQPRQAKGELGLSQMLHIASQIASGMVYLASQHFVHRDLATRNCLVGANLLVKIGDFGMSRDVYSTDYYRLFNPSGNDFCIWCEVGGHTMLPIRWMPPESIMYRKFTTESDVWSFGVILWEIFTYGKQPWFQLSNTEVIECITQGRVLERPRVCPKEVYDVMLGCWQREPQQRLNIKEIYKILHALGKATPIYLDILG
Chain of c-Src (P12931 whole entry): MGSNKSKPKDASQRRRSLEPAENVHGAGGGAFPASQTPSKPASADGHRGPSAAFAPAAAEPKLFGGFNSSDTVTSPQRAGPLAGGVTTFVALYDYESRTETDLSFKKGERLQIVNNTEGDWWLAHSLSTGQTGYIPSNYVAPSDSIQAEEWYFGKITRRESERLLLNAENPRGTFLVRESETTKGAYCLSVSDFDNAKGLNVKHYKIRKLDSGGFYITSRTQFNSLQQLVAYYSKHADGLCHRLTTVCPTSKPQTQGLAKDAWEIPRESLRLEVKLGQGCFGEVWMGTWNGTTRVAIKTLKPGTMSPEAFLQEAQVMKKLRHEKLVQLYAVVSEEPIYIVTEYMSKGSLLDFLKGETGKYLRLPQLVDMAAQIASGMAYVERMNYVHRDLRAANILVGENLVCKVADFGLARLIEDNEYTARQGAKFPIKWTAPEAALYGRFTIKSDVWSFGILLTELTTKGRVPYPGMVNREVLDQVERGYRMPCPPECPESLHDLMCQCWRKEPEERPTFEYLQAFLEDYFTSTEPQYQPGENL
T3 sequence (P08581 956-1390 limits assumed): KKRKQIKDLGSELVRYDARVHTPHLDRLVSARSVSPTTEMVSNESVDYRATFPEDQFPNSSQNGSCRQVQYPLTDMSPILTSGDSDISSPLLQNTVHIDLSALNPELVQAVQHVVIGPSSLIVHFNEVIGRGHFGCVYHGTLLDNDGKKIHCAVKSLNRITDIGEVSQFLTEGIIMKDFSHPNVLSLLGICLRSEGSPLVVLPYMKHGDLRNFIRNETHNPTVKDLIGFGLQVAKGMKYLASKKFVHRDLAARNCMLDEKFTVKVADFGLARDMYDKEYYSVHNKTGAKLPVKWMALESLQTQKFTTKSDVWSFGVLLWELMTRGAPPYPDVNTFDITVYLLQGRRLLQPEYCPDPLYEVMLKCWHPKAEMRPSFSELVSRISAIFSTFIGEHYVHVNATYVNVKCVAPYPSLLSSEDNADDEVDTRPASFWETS
T1 sequence (P09619 554-1106 limits assumed): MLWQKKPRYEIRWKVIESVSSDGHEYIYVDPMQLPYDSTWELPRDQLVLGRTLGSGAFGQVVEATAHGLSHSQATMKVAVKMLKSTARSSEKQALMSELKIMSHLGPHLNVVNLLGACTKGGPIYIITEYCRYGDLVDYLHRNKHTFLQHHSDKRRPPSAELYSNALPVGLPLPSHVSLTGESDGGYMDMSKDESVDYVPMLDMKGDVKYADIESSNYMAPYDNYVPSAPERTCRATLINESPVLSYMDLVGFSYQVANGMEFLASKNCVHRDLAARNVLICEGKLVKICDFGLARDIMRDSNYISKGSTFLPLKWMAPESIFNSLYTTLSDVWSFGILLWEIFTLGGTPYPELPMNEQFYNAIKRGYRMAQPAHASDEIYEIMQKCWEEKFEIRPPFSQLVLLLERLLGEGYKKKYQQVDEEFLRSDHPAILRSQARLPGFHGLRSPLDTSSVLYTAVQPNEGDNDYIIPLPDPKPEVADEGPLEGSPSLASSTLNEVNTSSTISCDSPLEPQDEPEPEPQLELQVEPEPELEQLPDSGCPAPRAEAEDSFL
T4 sequence (P35916 797-1363 limits assumed): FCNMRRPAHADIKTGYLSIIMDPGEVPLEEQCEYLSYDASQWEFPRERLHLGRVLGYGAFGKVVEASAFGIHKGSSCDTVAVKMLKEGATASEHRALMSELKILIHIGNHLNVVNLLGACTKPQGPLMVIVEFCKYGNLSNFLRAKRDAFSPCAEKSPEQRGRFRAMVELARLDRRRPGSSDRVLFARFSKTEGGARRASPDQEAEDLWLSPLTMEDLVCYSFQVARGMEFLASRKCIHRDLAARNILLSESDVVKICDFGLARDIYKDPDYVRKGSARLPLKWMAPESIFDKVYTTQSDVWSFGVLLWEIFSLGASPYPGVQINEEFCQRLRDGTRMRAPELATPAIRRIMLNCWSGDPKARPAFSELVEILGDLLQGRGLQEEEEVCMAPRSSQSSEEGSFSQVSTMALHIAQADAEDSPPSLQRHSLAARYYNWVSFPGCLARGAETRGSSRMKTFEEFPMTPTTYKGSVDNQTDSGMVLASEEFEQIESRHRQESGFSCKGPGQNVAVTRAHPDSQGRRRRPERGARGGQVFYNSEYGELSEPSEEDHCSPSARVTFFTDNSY
Chain of PKCiota (P41743 whole entry): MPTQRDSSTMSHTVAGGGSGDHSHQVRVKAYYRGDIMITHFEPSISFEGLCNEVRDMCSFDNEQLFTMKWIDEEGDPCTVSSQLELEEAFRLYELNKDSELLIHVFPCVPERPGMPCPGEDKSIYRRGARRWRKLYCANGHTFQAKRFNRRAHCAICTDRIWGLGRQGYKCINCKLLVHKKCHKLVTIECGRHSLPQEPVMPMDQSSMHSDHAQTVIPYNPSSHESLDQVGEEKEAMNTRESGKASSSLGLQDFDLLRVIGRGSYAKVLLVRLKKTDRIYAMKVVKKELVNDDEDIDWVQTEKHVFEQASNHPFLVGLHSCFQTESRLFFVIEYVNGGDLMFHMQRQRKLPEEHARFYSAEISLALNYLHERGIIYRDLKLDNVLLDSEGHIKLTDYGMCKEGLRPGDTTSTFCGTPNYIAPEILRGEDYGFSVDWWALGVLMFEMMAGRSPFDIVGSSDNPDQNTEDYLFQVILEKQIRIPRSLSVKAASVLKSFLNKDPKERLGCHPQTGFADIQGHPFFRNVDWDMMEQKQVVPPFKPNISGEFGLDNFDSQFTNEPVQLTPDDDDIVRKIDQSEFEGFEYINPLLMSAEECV
Chain of MEK2 (P36507 whole entry): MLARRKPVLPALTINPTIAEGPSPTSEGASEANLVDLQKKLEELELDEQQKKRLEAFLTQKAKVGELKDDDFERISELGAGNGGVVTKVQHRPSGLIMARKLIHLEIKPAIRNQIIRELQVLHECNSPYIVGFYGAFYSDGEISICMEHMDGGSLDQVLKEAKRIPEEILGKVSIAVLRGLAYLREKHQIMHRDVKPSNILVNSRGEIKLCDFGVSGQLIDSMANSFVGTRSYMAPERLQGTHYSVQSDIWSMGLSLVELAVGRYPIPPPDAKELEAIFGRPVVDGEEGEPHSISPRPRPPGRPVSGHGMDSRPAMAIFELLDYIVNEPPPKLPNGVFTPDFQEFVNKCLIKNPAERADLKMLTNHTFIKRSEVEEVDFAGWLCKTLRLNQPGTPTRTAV
T5 sequence (P30530 473-894 limits assumed): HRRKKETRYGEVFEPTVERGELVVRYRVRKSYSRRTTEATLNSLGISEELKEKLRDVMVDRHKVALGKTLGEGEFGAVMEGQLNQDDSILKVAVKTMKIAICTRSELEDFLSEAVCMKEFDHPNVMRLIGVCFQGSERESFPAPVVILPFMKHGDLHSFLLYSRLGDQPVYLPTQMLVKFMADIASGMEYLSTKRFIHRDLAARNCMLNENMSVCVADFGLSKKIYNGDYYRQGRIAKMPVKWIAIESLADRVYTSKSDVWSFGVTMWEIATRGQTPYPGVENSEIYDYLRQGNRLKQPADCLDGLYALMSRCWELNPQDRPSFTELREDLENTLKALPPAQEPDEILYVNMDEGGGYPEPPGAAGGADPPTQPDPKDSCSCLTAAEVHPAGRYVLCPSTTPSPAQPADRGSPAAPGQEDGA
Chain of JNK3 (P53779 whole entry): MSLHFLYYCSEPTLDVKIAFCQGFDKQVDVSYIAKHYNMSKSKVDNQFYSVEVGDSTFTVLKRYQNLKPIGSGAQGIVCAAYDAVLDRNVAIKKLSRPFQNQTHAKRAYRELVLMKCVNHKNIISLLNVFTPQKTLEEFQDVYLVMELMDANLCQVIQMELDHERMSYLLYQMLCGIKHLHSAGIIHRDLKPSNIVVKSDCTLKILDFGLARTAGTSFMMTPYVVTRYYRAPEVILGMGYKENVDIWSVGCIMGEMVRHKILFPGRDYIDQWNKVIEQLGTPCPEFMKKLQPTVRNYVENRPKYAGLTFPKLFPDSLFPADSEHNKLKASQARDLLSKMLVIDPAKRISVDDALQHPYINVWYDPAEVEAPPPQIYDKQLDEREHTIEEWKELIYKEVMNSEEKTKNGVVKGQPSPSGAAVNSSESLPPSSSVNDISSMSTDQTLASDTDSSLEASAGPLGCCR

The term IC50 denotes the concentration that gives 50% inhibition. Higher therefore signals a need for much substance. As a reminder, the half-life is the time in which the quantity being followed falls by half. The low end stands for rapid decline, the high end for slow decline. The bioavailability is dose-corrected exposure relative to a reference, in per cent. With `Nc1c(N2CCN(C3CCCCC3)CC2)cc(Nc2ccc(C(=O)O)cc2)c2c1C(=O)c1ccccc1C2=O` [Compound 12, 4-{[4-amino-3-(4-cyclohexylpiperazin-1-yl)-9,10-dioxo-9,10-dihydroanthracen-1-yl]amino}benzoic acid], the 50% inhibitory concentration (IC50) in series [1], in series [2], in series [3], in series [4], in series [5] and in series [6] was over 10 µM in each case. For the same molecule, the IC50 in series [7], in series [9], in [10], in [11], in series [13] and in series [14] was over 10 µM in each case. Moreover, the half-inhibitory concentration (IC50) in [15], in series [16] and in series [17] was over 10 µM each time. Besides, the half-life is about 3.5 h in series [8] (CD-1, mouse, ip, 50 mg/kg); about 1 h in [8] (CD-1, mouse, iv); about 4.5 h in series [8] (CD-1, mouse, po, 50 mg/kg). The bioavailability in [8] (CD-1, mouse, po, 50 mg/kg) was about 100%; in series [8] (mouse, ip, CD-1 mice, 50 mg/kg i.p. dosing, read-out: i.p. bioavailability), about 100%. The relative analgesic effect result in series [12] is on record as “about 85%”.
